From US7700606B2, “Imidazole amines as inhibitors of β-secretase” (Wyeth LLC, priority 2006, dated 2010)

Key:
[1] = target: human BACE1 (Homo sapiens, UniProt P56817); assay: Fluorescent kinetic enzyme assay, inhibition of BACE1 (WABC-6 peptide substrate); format: biochemical; settings: 10 nM enzyme, 25 μM substrate, pH 4.5, room temperature
Description: (§1) Evaluation of the Enzyme Activity of Test Compounds and the Inhibition of hBACE1, MuBACE1 and hBACE2 by Test Compounds
Dilution and mixing steps: total reaction volume: 100 μL • 1. […] 100 μM substrate dilution in 1× PBS is prepared, • 4.
Fluorescence Readings: Readings at λex 320 nm and λem 420 nm are taken every 40-sec for 30 min at room temperature to determine the linear slope for substrate cleavage rate (vi).

[2] = target: T1, human BACE2 (Homo sapiens, UniProt Q9Y5Z0); assay: Fluorescent kinetic assay for human recombinant BACE 2 (WABC-6 peptide substrate); format: biochemical; settings: for IC50: 1.5 nM enzyme, 25 μM substrate, pH 4.5, room temperature
T1 sequence (Q9Y5Z0 63-518): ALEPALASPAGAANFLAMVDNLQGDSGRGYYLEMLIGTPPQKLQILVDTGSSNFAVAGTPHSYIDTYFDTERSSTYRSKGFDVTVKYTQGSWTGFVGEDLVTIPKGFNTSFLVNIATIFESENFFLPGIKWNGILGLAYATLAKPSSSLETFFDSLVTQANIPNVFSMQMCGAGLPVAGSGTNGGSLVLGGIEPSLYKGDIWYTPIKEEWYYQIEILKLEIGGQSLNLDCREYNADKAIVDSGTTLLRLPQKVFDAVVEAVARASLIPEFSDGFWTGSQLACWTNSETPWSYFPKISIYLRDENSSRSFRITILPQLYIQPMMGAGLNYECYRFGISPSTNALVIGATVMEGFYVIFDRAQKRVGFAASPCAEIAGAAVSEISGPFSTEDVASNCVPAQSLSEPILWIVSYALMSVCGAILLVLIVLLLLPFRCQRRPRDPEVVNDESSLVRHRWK
Description: as §1
Assay Conditions: 10 nM human BACE1 (or 10 nM Murine BACE1, 1.5 nM human BACE2) 25 μM substrate (WABC-6, MW 1549.6, from AnaSpec); final buffer conditions: 50 mM Na-Acetate, pH 4.5, 0.05% CHAPS, 25% PBS; temperature: room temperature; reagent information: Na-Acetate: Aldrich, Cat.#24,124-5 CHAPS: Research Organics, Cat. #1304C 1× PBS: Mediatech (Cellgro), Cat#21-031-CV; peptide substrate AbzSEVNLDAEFRDpa: AnaSpec, Peptide Name: WABC-6; determination of stock substrate (AbzSEVNLDAEFRDpa) concentration: a 25 mM stock solution in dimethyl sulfoxide (DMSO) is prepared using the peptide weight and MW and diluted to 25 μM. The concentration is determined by absorbance at 354 nm using an extinction coefficient ε of 18172 M^−1 cm^−1, The substrate stock is stored in small aliquots at −80° C. [Substrate Stock]=ABS^354 nm*10^6/18172 (in mM)
Calculation of % Inhibition: % Inhibition=100*(1−vi/v0) • (vi=substrate cleavage rate in the presence of inhibitor, • v0=substrate cleavage rate in the absence of inhibitor) IC50 Determination: % Inhibition=[(B*IC50^n)+(100*I0^n)]/(IC50^n+I0^n), Fluorescent Kinetic Assay for Human Recombinant BACE 2
This assay is used to provide kinetic and selectivity parameters for the analyses of the tested compounds.
Materials and methods: final assay conditions: 10 nM human BACE1 (or 10 nM Murine BACE1, 1.5 nM human BACE2) 25 μM Substrate (WABC-6, MW 1549.6, from AnaSpec). Final buffer conditions: 50 mM Na-Acetate, pH 4.5, 0.05% CHAPS, 25% PBS. Temperature: room temperature. Reagent Information: Na-Acetate: Aldrich, Cat.#24,124-5 CHAPS: Research Organics, Cat. #1304C 1× PBS: Mediatech (Cellgro), Cat#21-031-CV Peptide Substrate AbzSEVNLDAEFRDpa: AnaSpec, Peptide Name: WABC-6
Determination of stock substrate (AbzSEVNLDAEFRDpa) concentration: A 25 mM stock solution in DMSO is prepared using the peptide weight and MW, and diluted to 25 μM. The concentration is determined by absorbance at 354 nm using an extinction coefficient ε of 18172 M^−1cm^−1. The substrate stock is stored in small aliquots at −80° C. [Substrate Stock]=ABS^354 nm*10^6/18172 (in mM)
Determination of stock enzyme concentration: The stock concentration of each enzyme is determined by ABS at 280 nm using ε of 64150 M^−1cm^−1 for hBACE1 and MuBACE1, 62870 M^−1cm^−1 for hBACE2 in 6 M guanidinium hydrochloride (from Research Organics, Cat. #5134G-2), pH 6. (The extinction coefficient ε^280 nm for each enzyme is calculated based on known amino acid composition and published extinction coefficients for Trp ([…]) and Tyr ([…]) residues (Anal. Biochem. 182, 319-326).)
Dilution and Mixing Steps: Total Reaction Volume: 100 μL • 1. 2× inhibitor dilutions in buffer A (66.7 mM Na-Acetate, pH 4.5, 0.0667% CHAPS) are prepared, • 2. 4× enzyme dilution in buffer A (66.7 mM Na-Acetate, pH 4.5, 0.0667% CHAPS) are prepared, • 3. 100 μM substrate dilution in 1× PBS, 50 μL 2× Inhibitor and 25 μL 100 μM substrate are added to each well of 96-well plate (from DYNEX Technologies, VWR #: 11311-046), then immediately 25 μL 4× enzyme is added to the inhibitor and substrate mixer and the fluorescence readings are initiated.
Fluorescence Readings: Readings at λex 320 nm, λem 420 nm are taken every 40-sec for 30 min at room temperature and to determine the linear slope for substrate cleavage rate (vi).
Analysis of calculation of % inhibition: % Inhibition=100*(1−vi/v0) • vi=substrate cleavage rate in the presence of inhibitor, • v0=substrate cleavage rate in the absence of inhibitor) • IC50 Determination: % Inhibition=((B*IC50^n)+(100*I0^n))/(IC50^n+I0^n),
Unless otherwise noted, the IC50 value represents the value obtained at […].

human BACE1, sequence (P56817 46-501): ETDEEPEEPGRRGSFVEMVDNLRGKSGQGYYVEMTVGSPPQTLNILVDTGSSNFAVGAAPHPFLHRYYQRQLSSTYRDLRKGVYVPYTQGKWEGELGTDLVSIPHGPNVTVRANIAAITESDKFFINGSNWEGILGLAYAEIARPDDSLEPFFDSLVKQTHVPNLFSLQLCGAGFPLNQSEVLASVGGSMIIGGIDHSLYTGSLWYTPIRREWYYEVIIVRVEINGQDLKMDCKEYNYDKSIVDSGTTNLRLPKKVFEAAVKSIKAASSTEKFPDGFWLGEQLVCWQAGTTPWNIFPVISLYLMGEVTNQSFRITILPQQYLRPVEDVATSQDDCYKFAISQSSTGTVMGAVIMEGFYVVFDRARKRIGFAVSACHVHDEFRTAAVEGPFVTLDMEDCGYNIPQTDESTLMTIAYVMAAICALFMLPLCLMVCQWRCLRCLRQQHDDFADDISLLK

In the case of `NC1=NC(c2cccc(-c3cccnc3F)c2)(c2cnn(CC(F)(F)F)c2)C2=NCCCN12` (stereo not drawn) [Example 4, 8-[3-(2-Fluoropyridin-3-yl)phenyl]-8-[1-(2,2,2-trifluoroethyl)-1H-pyrazol-4-yl]-2,3,4,8-tetrahydroimidazo[1,5-a]pyrimidin-6-amine], the IC50 [1] is reported as 80 nM, the melting point is reported as 106 to 116 °C and the IC50 [2] is reported as 5120 nM.
`NC1=NC(c2ccc(OC(F)(F)F)cc2)(c2cccc(-c3cncc(F)c3)c2)C2=NCCON12` (stereo not drawn) [Example 6, 8-[3-(5-Fluoropyridin-3-yl)phenyl]-8-[4-(trifluoromethoxy)phenyl]-2,8-dihydro-3H-imidazo[1,5-b][1,2,4]oxadiazin-6-amine] gave an IC50 [1] of 50 nM, a melting point of 120 to 135 °C and an IC50 [2] of 1190 nM.
`NC1=NC(c2ccc(OC(F)(F)F)cc2)(c2cccc(-c3cccnc3F)c2)C2=NOCCN12` (stereo not drawn) [Example 5, 8-[3-(2-Fluoropyridin-3-yl)phenyl]-8-[4-(trifluoromethoxy)-phenyl]-3,4-dihydro-8H-imidazo[5,1-c][1,2,4]oxadiazin-6-amine] gave an IC50 [1] of 30 nM, a melting point of 102 to 117 °C and an IC50 [2] of 2020 nM.
Molecule `NC1=NC(c2ccncc2)(c2cccc(-c3cccnc3F)c2)C2=NCCCN12` (stereo not drawn) [Example 1, 8-[3-(2-Fluoropyridin-3-yl)phenyl]-8-pyridin-4-yl-2,3,4,8-tetrahydroimidazo[1,5-a]pyrimidin-6-amine] has an IC50 [1] of 520 nM, a melting point of 125 to 131 °C and an inhibition at 25 µM [2] of 51%.
For `CCn1cc(C2(c3cccc(-c4cccnc4F)c3)N=C(N)N3CCCN=C32)cn1` (stereo not drawn) [Example 3, 8-(1-Ethyl-1H-pyrazol-4-yl)-8-[3-(2-fluoropyridin-3-yl)phenyl]-2,3,4,8-tetrahydroimidazo[1,5-a]pyrimidin-6-amine], the IC50 [1] was 90 nM, the melting point was 91 to 115 °C and the IC50 [2] was 3520 nM.
For `CCc1cc(C2(c3cccc(-c4cccnc4F)c3)N=C(N)N3CCCN=C32)cc(CC)n1` (stereo not drawn) [Example 2, 8-(2,6-Diethylpyridin-4-yl)-8-[3-(2-fluoropyridin-3-yl)phenyl]-2,3,4,8-tetrahydroimidazo[1,5-a]pyrimidin-6-amine], the IC50 [1] was 10 nM, the melting point was 174 to 176 °C and the inhibition at 25 µM [2] was 38%.
